Bounds are passed on as bounds.

The source of these data is patent publication US20240116985A1, “STAPLED PEPTIDES AND METHODS THEREOF” (priority 2020, published 2024).

Assay [1] concerns the target T1, beta-catenin/TCF4 engagement (Homo sapiens, UniProt P35222).
T1 construct: expressed in transfected cells; host or cells: HEK293
T1 sequence (P35222 1-781): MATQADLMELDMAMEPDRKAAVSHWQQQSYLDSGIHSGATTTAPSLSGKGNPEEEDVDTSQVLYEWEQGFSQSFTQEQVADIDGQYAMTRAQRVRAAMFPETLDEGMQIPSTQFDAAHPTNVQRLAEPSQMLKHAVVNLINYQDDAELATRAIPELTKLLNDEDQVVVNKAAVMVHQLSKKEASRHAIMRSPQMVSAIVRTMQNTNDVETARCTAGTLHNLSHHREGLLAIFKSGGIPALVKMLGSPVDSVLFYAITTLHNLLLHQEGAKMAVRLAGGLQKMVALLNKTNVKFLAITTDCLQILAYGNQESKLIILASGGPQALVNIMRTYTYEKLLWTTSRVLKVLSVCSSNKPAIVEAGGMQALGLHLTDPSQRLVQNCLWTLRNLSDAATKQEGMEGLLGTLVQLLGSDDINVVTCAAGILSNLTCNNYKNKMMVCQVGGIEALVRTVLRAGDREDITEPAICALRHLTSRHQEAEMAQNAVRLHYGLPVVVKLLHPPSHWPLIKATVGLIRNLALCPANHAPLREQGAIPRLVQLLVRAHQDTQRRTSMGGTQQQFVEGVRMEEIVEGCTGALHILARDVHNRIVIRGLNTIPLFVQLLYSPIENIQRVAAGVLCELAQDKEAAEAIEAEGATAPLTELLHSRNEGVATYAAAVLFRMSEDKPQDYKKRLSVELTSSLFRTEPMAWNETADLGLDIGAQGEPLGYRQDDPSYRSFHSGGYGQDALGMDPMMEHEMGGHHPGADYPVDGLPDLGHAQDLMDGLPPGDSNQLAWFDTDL
The experiment in a line: Nano-BRET target engagement assay (B-cat-Halo & TCF4-Luc in HEK293 cells). In kind it is cell-based. The following applies: absolute IC50; read-out: NanoBRET Abs IC50.

Assay [2] addresses T2, full-length beta-Catenin (Uniprot ID P35222) (Homo sapiens, UniProt P35222).
T2 construct: 10 nM full-length beta-Catenin (Uniprot ID P35222)
T2 sequence (P35222 1-781): T1 sequence (P35222 1-781)
The experiment in a line: Fluorescence polarization IC50 (beta-catenin / 5FAM-TCF4 10-53 competition). It counts as binding. Conditions: fluorescence polarization; read-out: beta-Catenin FP IC50.

Take `CC(=O)N1CCC[C@]12CC=CCCCC1(CCCC=CCCCOC(=O)N3CC[C@@](C(=O)N[C@@H](Cc4ccccc4Cl)C(=O)N[C@@H](Cc4csc5ccccc45)C(=O)N[C@@H](CCC(N)=O)C(N)=O)(C3)NC(=O)[C@H](CC(C)C)NC(=O)[C@H](Cc3ccccc3)NC(=O)[C@H](C)NC(=O)[C@H](CCCCNC(C)C)NC(=O)[C@H](CC(=O)O)NC(=O)[C@H](CC(=O)O)NC1=O)NC(=O)[C@H](CC(C)(C)C)NC(=O)[C@H](CC(=O)O)NC2=O` (stereo partly drawn) [I-1275, Ac-PL3-Asp-Npg-B5-Asp-Asp-iPrLys-Ala-Phe-Leu-PyrS2-2C1F-BztA-Gln-NH2]: the IC50 was 27800 nM in assay [1] and 9 nM in assay [2].

Consider `CC(=O)N1CCC[C@]12CC=CCCCC1(CCCC=CCCCOC(=O)N3CC[C@@](C(=O)N[C@@H](Cc4ccccc4Cl)C(=O)N[C@@H](Cc4csc5ccccc45)C(=O)N[C@H](C(N)=O)[C@@H](C)O)(C3)NC(=O)[C@H](CC(C)C)NC(=O)[C@H](Cc3ccccc3)NC(=O)[C@H](C)NC(=O)[C@H](CCCCNC(C)C)NC(=O)[C@H](CC(=O)O)NC(=O)[C@H](CC(=O)O)NC1=O)NC(=O)[C@H](CC(C)(C)C)NC(=O)[C@H](CC(=O)O)NC2=O` (stereo partly drawn) [I-1276, Ac-PL3-Asp-Npg-B5-Asp-Asp-iPrLys-Ala-Phe-Leu-PyrS2-2C1F-BztA-Thr-NH2], for which the figures for the IC50 in assay [1] and in assay [2] were more than 20000 nM and 10 nM, respectively.

As for `CC(=O)N1CCC[C@]12CC=CCCCC1(CCCC=CCCCOC(=O)N3CC[C@@](C(=O)N[C@@H](Cc4ccccc4Cl)C(=O)N[C@@H](Cc4csc5ccccc45)C(=O)N[C@@H](CC(C)C)C(N)=O)(C3)NC(=O)[C@H](CC(C)C)NC(=O)[C@H](Cc3ccccc3)NC(=O)[C@H](C)NC(=O)[C@H](CCCCNC(C)C)NC(=O)[C@H](CC(=O)O)NC(=O)[C@H](CC(=O)O)NC1=O)NC(=O)[C@H](CC(C)(C)C)NC(=O)[C@H](CC(=O)O)NC2=O` (stereo partly drawn) [I-1277, Ac-PL3-Asp-Npg-B5-Asp-Asp-iPrLys-Ala-Phe-Leu-PyrS2-2C1F-BztA-Leu-NH2], the concentration for half-maximal inhibition (IC50) is more than 20000 nM in assay [1] and 17 nM in assay [2].

For `CC(=O)N1CCC[C@]12CC=CCCCC1(CCCC=CCCCCCC[C@@](C)(C(=O)N[C@@H](Cc3ccccc3)C(=O)N[C@@H](Cc3csc4ccccc34)C(=O)N[C@@H](CCC(N)=O)C(N)=O)NC(=O)[C@H](CCO)NC(=O)[C@H](Cc3ccccc3)NC(=O)[C@H](C)NC(=O)[C@H](C)NC(=O)[C@H](CC(=O)O)NC(=O)[C@H](CC(=O)O)NC1=O)NC(=O)[C@H](CC(C)(C)C)NC(=O)[C@H](CC(=O)O)NC2=O` (stereo partly drawn) [I-1388, Ac-PL3-Asp-Npg-B5-Asp-Asp-Ala-Ala-Phe-Hse-S8-Phe-BztA-Gln-NH2], the half-maximal inhibitory concentration (IC50) in assay [1] worked out at 11300 nM; in assay [2], 18 nM.

Regarding `CC(=O)N1CCC[C@]12CC=CCCCC1(CCCC=CCCCCCC[C@@](C)(C(=O)N[C@@H](Cc3ccsc3)C(=O)N[C@@H](Cc3csc4ccccc34)C(=O)N[C@@H](CCC(N)=O)C(N)=O)NC(=O)[C@H](CCO)NC(=O)[C@H](Cc3ccccc3)NC(=O)[C@H](C)NC(=O)[C@H](C)NC(=O)[C@H](CC(=O)O)NC(=O)[C@H](CC(=O)O)NC1=O)NC(=O)[C@H](CC(C)(C)C)NC(=O)[C@H](CC(=O)O)NC2=O` (stereo partly drawn) [I-1389, Ac-PL3-Asp-Npg-B5-Asp-Asp-Ala-Ala-Phe-Hse-S8-3Thi-BztA-Gln-NH2], the IC50 in assay [1] came to 9200 nM; in assay [2], 9 nM.

`CC(=O)N1CCC[C@]12CC=CCCCC1(CCCC=CCCCCCC[C@@](C)(C(=O)N[C@@H](Cc3cccs3)C(=O)N[C@@H](Cc3csc4ccccc34)C(=O)N[C@@H](CCC(N)=O)C(N)=O)NC(=O)[C@H](CC(N)=O)NC(=O)[C@H](Cc3ccccc3)NC(=O)[C@H](C)NC(=O)[C@H](C)NC(=O)[C@H](CC(=O)O)NC(=O)[C@H](CC(=O)O)NC1=O)NC(=O)[C@H](CC(C)(C)C)NC(=O)[C@H](CC(=O)O)NC2=O` (stereo partly drawn) [I-1391, Ac-PL3-Asp-Npg-B5-Asp-Asp-Ala-Ala-Phe-Asn-S8-2Thi-BztA-Gln-NH2]: the IC50 in assay [1] came to 35000 nM; in assay [2] it was 11 nM.

For `CC(=O)N1CCC[C@]12CC=CCCCC1(CCCC=CCCCCCC[C@@](C)(C(=O)N[C@@H](Cc3cccs3)C(=O)N[C@@H](Cc3csc4ccccc34)C(=O)N[C@@H](CCC(N)=O)C(N)=O)NC(=O)[C@H](CCO)NC(=O)[C@H](Cc3ccccc3)NC(=O)[C@H](C)NC(=O)[C@H](C)NC(=O)[C@H](CC(=O)O)NC(=O)[C@H](CC(=O)O)NC1=O)NC(=O)[C@H](CC(C)(C)C)NC(=O)[C@H](CC(=O)O)NC2=O` (stereo partly drawn) [I-1392, Ac-PL3-Asp-Npg-B5-Asp-Asp-Ala-Ala-Phe-Hse-S8-2Thi-BztA-Gln-NH2], the IC50 in assay [1] was 18300 nM; in assay [2] it was 13 nM.

For the molecule `CC(=O)N1CCC[C@]12CC=CCCCC1(CCCC=CCCCCCC[C@@](C)(C(=O)N[C@@H](Cc3cccs3)C(=O)N[C@@H](Cc3csc4ccccc34)C(=O)N[C@H](CO)[C@@H](C)O)NC(=O)[C@H](CCO)NC(=O)[C@H](Cc3ccccc3)NC(=O)[C@H](C)NC(=O)[C@H](C)NC(=O)[C@H](CC(=O)O)NC(=O)[C@H](CC(=O)O)NC1=O)NC(=O)[C@H](CC(C)(C)C)NC(=O)[C@H](CC(=O)O)NC2=O` (stereo partly drawn) [I-1393, Ac-PL3-Asp-Npg-B5-Asp-Asp-Ala-Ala-Phe-Hse-S8-2Thi-BztA-Thro1], the IC50 was determined as 18600 nM in assay [1] and 34 nM in assay [2].

Turning to `CC(=O)N1CCC[C@]12CC=CCCCC1(CCCC=CCCCCCC[C@@](C)(C(=O)N[C@@H](Cc3ccccc3Cl)C(=O)N[C@@H](Cc3csc4ccccc34)C(=O)N[C@@H](CCC(N)=O)C(N)=O)NC(=O)[C@H](CC(N)=O)NC(=O)[C@H](Cc3ccccc3)NC(=O)[C@H](C)NC(=O)[C@H](C)NC(=O)[C@H](CC(=O)O)NC(=O)[C@H](CC(=O)O)NC1=O)NC(=O)[C@H](CC(C)(C)C)NC(=O)[C@H](CC(=O)O)NC2=O` (stereo partly drawn) [I-1394, Ac-PL3-Asp-Npg-B5-Asp-Asp-Ala-Ala-Phe-Asn-S8-2C1F-BztA-Gln-NH2], the IC50 was 15900 nM in assay [1] and 9 nM in assay [2].

For the molecule `CC(=O)N1CCC[C@]12CC=CCCCC1(CCCC=CCCCCCC[C@@](C)(C(=O)N[C@@H](Cc3ccccc3Cl)C(=O)N[C@@H](Cc3csc4ccccc34)C(=O)N[C@@H](CCC(N)=O)C(N)=O)NC(=O)[C@H](CCO)NC(=O)[C@H](Cc3ccccc3)NC(=O)[C@H](C)NC(=O)[C@H](C)NC(=O)[C@H](CC(=O)O)NC(=O)[C@H](CC(=O)O)NC1=O)NC(=O)[C@H](CC(C)(C)C)NC(=O)[C@H](CC(=O)O)NC2=O` (stereo partly drawn) [I-1395, Ac-PL3-Asp-Npg-B5-Asp-Asp-Ala-Ala-Phe-Hse-S8-2C1F-BztA-Gln-NH2], the IC50 in assay [1] was found to be 15400 nM; in assay [2] it was 33 nM.

As to `CC(=O)N1CCC[C@]12CC=CCCCC1(CCCC=CCCCCCC[C@@](C)(C(=O)N[C@@H](Cc3ccccc3C(F)(F)F)C(=O)N[C@@H](Cc3csc4ccccc34)C(=O)N[C@@H](CCC(N)=O)C(N)=O)NC(=O)[C@H](CC(N)=O)NC(=O)[C@H](Cc3ccccc3)NC(=O)[C@H](C)NC(=O)[C@H](C)NC(=O)[C@H](CC(=O)O)NC(=O)[C@H](CC(=O)O)NC1=O)NC(=O)[C@H](CC(C)(C)C)NC(=O)[C@H](CC(=O)O)NC2=O` (stereo partly drawn) [I-1396, Ac-PL3-Asp-Npg-B5-Asp-Asp-Ala-Ala-Phe-Asn-S8-2F3MeF-BztA-Gln-NH2], the values for the IC50 in assay [1] and in assay [2] were 15300 nM and 33 nM, respectively.

As for `CC(=O)N1CCC[C@]12CC=CCCCC1(CCCC=CCCCCCC[C@@](C)(C(=O)N[C@@H](Cc3ccccc3C(F)(F)F)C(=O)N[C@@H](Cc3csc4ccccc34)C(=O)N[C@@H](CCC(N)=O)C(N)=O)NC(=O)[C@H](CCO)NC(=O)[C@H](Cc3ccccc3)NC(=O)[C@H](C)NC(=O)[C@H](C)NC(=O)[C@H](CC(=O)O)NC(=O)[C@H](CC(=O)O)NC1=O)NC(=O)[C@H](CC(C)(C)C)NC(=O)[C@H](CC(=O)O)NC2=O` (stereo partly drawn) [I-1397, Ac-PL3-Asp-Npg-B5-Asp-Asp-Ala-Ala-Phe-Hse-S8-2F3MeF-BztA-Gln-NH2], the figures for the IC50 in assay [1] and in assay [2] were 16400 nM and 48 nM, respectively.

In the case of `CC(=O)N1CCC[C@]12CC=CCCCC1(CCCC=CCCCOC(=O)N3CC[C@@](C(=O)N[C@@H](Cc4ccsc4)C(=O)N[C@@H](Cc4csc5ccccc45)C(=O)N[C@@H](CCC(N)=O)C(N)=O)(C3)NC(=O)[C@H](CC(C)C)NC(=O)[C@H](Cc3ccccc3)NC(=O)[C@H](C)NC(=O)[C@H](C)NC(=O)[C@H](CC(=O)O)NC(=O)[C@H](CC(=O)O)NC1=O)NC(=O)[C@H](CC(C)C)NC(=O)[C@H](CC(=O)O)NC2=O` (stereo partly drawn) [I-1399, Ac-PL3-Asp-Leu-B5-Asp-Asp-Ala-Ala-Phe-Leu-PyrS2-3Thi-BztA-Gln-NH2], the IC50 in assay [1] was 17400 nM; in assay [2], 13 nM.

Consider `CCCC[C@@H]1NC(=O)[C@H](CC(=O)O)NC(=O)[C@]2(CC=CCCCC3(CCCC=CCCCOC(=O)N4CC[C@@](C(=O)N[C@@H](Cc5ccsc5)C(=O)N[C@@H](Cc5csc6ccccc56)C(=O)N[C@@H](CCC(N)=O)C(N)=O)(C4)NC(=O)[C@H](CC(C)C)NC(=O)[C@H](Cc4ccccc4)NC(=O)[C@H](C)NC(=O)[C@H](C)NC(=O)[C@H](CC(=O)O)NC(=O)[C@H](CC(=O)O)NC3=O)NC1=O)CCCN2C(C)=O` (stereo partly drawn) [I-1400, Ac-PL3-Asp-nLeu-B5-Asp-Asp-Ala-Ala-Phe-Leu-PyrS2-3Thi-BztA-Gln-NH2], for which the IC50 in assay [1] is 20300 nM; in assay [2], 5 nM.
